Measurements: patent publication US20250081967A1, “PESTICIDALLY ACTIVE HETEROCYCLIC DERIVATIVES WITH SULFOXIMINE CONTAINING SUBSTITUENTS” (SYNGENTA CROP PROTECTION AG, priority 2021, published 2025)

Tests used:
Type in all cases: in vivo
[1] = system: Myzus persicae; experiment: Activity against Myzus persicae (green peach aphid), feeding/contact activity, sunflower leaf discs; conditions: for mortality at 200 ppm: 144 h, application rate 200 ppm, feeding/contact, 6 days after infestation
Method: Example B4: Activity Against Myzus persicae (Green Peach Aphid) Feeding/Contact Activity
Sunflower leaf discs were placed on agar in a 24-well microtiter plate and sprayed with aqueous test solutions prepared from 10′000 ppm DMSO stock solutions. After drying, the leaf discs were infested with an aphid population of mixed ages. The samples were assessed for mortality 6 days after infestation.

[2] = system: Myzus persicae; experiment: Activity against Myzus persicae (green peach aphid), systemic activity, pea seedlings; conditions: Myzus persicae
Method: Example B5: Activity Against Myzus persicae (Green Peach Aphid) Systemic Activity
Roots of pea seedlings infested with an aphid population of mixed ages were placed directly in the aqueous test solutions prepared from 10′000 DMSO stock solutions. The samples were assessed for mortality 6 days after placing seedlings in test solutions.

[3] = system: Bemisia tabaci; experiment: Activity against Bemisia tabaci (cotton white fly), cotton leaf discs; conditions: foliar; for mortality at 200 ppm: 144 h, application rate 200 ppm, adult white flies, 6 days after incubation; for mortality at 12.5 ppm: concentration 12.5 ppm
Method: Example B6: Activity Against Bemisia tabaci (Cotton White Fly)
Cotton leaf discs were placed on agar in 24-well microtiter plates and sprayed with aqueous test solutions prepared from 10′000 ppm DMSO stock solutions. After drying the leaf discs were infested with adult white flies. The samples were checked for mortality 6 days after incubation.

[4] = system: Diabrotica balteata; experiment: Activity against Diabrotica balteata (corn root worm), maize sprouts; conditions: for mortality at 50 ppm: concentration 50 ppm; for mortality at 3.125 ppm: concentration 3.125 ppm; for percent effect (mortality or growth inhibition) at 200 ppm: 96 h, application rate 200 ppm, L2 larvae, 4 days after infestation, read-out: effect in at least one of the two categories (mortality or growth inhibition)
Method: Example B3: Activity Against Diabrotica Balteata (Corn Root Worm)
Maize sprouts placed onto an agar layer in 24-well microtiter plates were treated with aqueous test solutions prepared from 10′000 ppm DMSO stock solutions by spraying. After drying, the plates were infested with L2 larvae (6 to 10 per well). The samples were assessed for mortality and growth inhibition in comparison to untreated samples 4 days after infestation.

[5] = system: Spodoptera littoralis; experiment: Activity against Spodoptera littoralis (Egyptian cotton leaf worm), cotton leaf discs; conditions: foliar, 72 h, application rate 200 ppm, L1 larvae, 3 days after infestation, read-out: control (mortality, anti-feeding effect or growth inhibition)
Method: Example B1: Activity Against Spodoptera littoralis (Egyptian Cotton Leaf Worm)
Cotton leaf discs were placed onto agar in 24-well microtiter plates and sprayed with aqueous test solutions prepared from 10′000 ppm DMSO stock solutions. After drying the leaf discs were infested with five L1 larvae. The samples were assessed for mortality, anti-feeding effect, and growth inhibition in comparison to untreated samples 3 days after infestation. Control of Spodoptera littoralis by a test sample is given when at least one of the categories mortality, anti-feedant effect, and growth inhibition is higher than the untreated sample.

[6] = system: Plutella xylostella; experiment: Activity against Plutella xylostella (diamond back moth), artificial diet, eggs; conditions: 192 h, application rate 200 ppm, 8 days after infestation, read-out: effect in at least one of the two categories (mortality or growth inhibition)
Method: Example B9: Activity Against Plutella xylostella (Diamond Back Moth)
24-well microtiter plates with artificial diet were treated with aqueous test solutions prepared from 10′000 ppm DMSO stock solutions by pipetting. After drying, Plutella eggs were pipetted through a plastic stencil onto a gel blotting paper and the plate was closed with it. The samples were assessed for mortality and growth inhibition in comparison to untreated samples 8 days after infestation.

[7] = 144 h, test rate 24 ppm, systemic, 6 days after placing seedlings in test solutions
[8] = Myzus persicae (systemic), concentration 24 ppm
[9] = Myzus persicae, foliar, Myzus persicae (feeding/contact), concentration 3.125 ppm

CCS(=N)(=O)c1cc(C(C)(C)C#N)cnc1-c1nc2cc(C(F)(F)F)ncc2n1C (racemic) [Compound P4, 2-[5-(ethylsulfonimidoyl)-6-[3-methyl-6-(trifluoromethyl)imidazo[4,5-c]pyridin-2-yl]-3-pyridyl]-2-methyl-propanenitrile]
mortality at 200 ppm ([1]; Myzus persicae, foliar): ≥ 80%
mortality at 24 ppm [2, 7]: ≥ 80%
mortality at 200 ppm [3]: ≥ 80%

CCS(=N)(=O)c1cc(C2(C#N)CC2)cnc1-c1nc2cc(C(F)(F)F)cnc2n1C (racemic) [Described in WO19/234158 as compound P6, reference compound]
mortality at 12.5 ppm [3]: 50%

CCS(=N)(=O)c1cc(C2(C#N)CC2)ccc1-c1nc2cc(C(F)(F)F)ncc2n1C (racemic) [Described in WO19/234158 as compound P13, reference compound]
mortality at 50 ppm [4]: 0%
mortality at 12.5 ppm [3]: 0%

CCn1c(C(F)(F)F)cc2nc(-c3ncc(C4(C#N)CC4)cc3S(=N)(=O)CC)n(C)c2c1=O (racemic) [Described in WO19/234158 as compound P14, reference compound]
mortality at 50 ppm [4]: 0%

CCS(=N)(=O)c1cc(C2(C#N)CC2)ccc1-c1nc2cc(C(F)(F)F)cnc2n1C (racemic) [Described in WO19/234158 as compound P15, reference compound]
mortality at 50 ppm [4]: 0%

CCS(=N)(=O)c1cc(OC(C)(C)C#N)cnc1-c1nc2cc(C(F)(F)F)ncc2n1C (racemic) [Described in WO20/084075 as compound P1, reference compound]
mortality at 50 ppm [4]: 0%

CCS(=N)(=O)c1cc(OC(C)(C)C#N)cnc1-c1nc2cc(C(F)(F)F)nnc2n1C (racemic) [Described in WO20/084075 as compound P2, reference compound]
mortality at 12.5 ppm ([4]; concentration 12.5 ppm): 0%

CCS(=N)(=O)c1cc(OC(C)(C)C#N)cnc1-c1nc2cc(C(F)(F)F)cnc2n1C (racemic) [Described in WO20/084075 as compound P3, reference compound]
mortality at 50 ppm [4]: 80%

CCS(=O)(=O)c1cc(OC(C)(C)C#N)c(C)nc1-c1nc2cc(C(F)(F)F)cnc2n1C (racemic) [Described in WO20/084075 as compound P4, reference compound]
mortality at 3.125 ppm [4]: 0%

CCS(=N)(=O)c1cc(OC(C)(C)C#N)cnc1-c1cn2cnc(SC(F)(F)F)cc2n1 (racemic) [Described in WO20/084075 as compound P11, reference compound]
mortality at 50 ppm ([3]; concentration 50 ppm): 50%

CCS(=N)(=O)c1cc(C2(C#N)CC2)cnc1-c1nc2cc(C(F)(F)F)ncc2n1C (racemic) [reference compound]
mortality at 12.5 ppm [3]: 50%

CCS(=N)(=O)c1cc(C2(C#N)CC2)cnc1-c1nc2cc(C(F)(F)F)nnc2n1C (single isomer, unassigned) [Compound P2-B, 1-[5-(ethylsulfonimidoyl)-6-[7-methyl-3-(trifluoromethyl)imidazo[4,5-c]pyridazin-6-yl]-3-pyridyl]cyclopropanecarbonitrile]
Mortality (%) ([1]; Myzus persicae (feeding/contact), concentration 3.125 ppm): 50%

CCS(=N)(=O)c1cc(OC(C)(C)C#N)cnc1-c1cn2ccc(C(F)(F)F)cc2n1 (single isomer, unassigned) [Compound P3-A, 2-[[5-(ethylsulfonimidoyl)-6-[7-(trifluoromethyl)imidazo[1,2-a]pyridin-2-yl]-3-pyridyl]oxy]-2-methyl-propanenitrile]
percent control (mortality, anti-feedant effect or growth inhibition) at 200 ppm [5]: ≥ 80%
percent effect (mortality or growth inhibition) at 200 ppm [4]: ≥ 80%
mortality at 200 ppm ([1]; Myzus persicae, foliar): ≥ 80%

CCS(=N)(=O)c1cc(OC(C)(C)C#N)cnc1-c1cn2ccc(C(F)(F)F)cc2n1 (single isomer, unassigned) [Compound P3-B, 2-[[5-(ethylsulfonimidoyl)-6-[7-(trifluoromethyl)imidazo[1,2-a]pyridin-2-yl]-3-pyridyl]oxy]-2-methyl-propanenitrile]
mortality at 24 ppm [2, 7]: ≥ 80%
percent effect (mortality or growth inhibition) at 200 ppm [6]: ≥ 80%

CCS(=N)(=O)c1cc(C(C)(C)C#N)cnc1-c1nc2cc(C(F)(F)F)ncc2n1C (single isomer, unassigned) [Compound P4-A, 2-[5-(ethylsulfonimidoyl)-6-[3-methyl-6-(trifluoromethyl)imidazo[4,5-c]pyridin-2-yl]-3-pyridyl]-2-methyl-propanenitrile]
mortality at 200 ppm ([1]; Myzus persicae, foliar): ≥ 80%
mortality at 24 ppm [2, 7]: ≥ 80%
mortality at 200 ppm [3]: ≥ 80%

CCS(=N)(=O)c1cc(C(C)(C)C#N)cnc1-c1nc2cc(C(F)(F)F)ncc2n1C (single isomer, unassigned) [Compound P4-B, 2-[5-(ethylsulfonimidoyl)-6-[3-methyl-6-(trifluoromethyl)imidazo[4,5-c]pyridin-2-yl]-3-pyridyl]-2-methyl-propanenitrile]
percent effect (mortality or growth inhibition) at 200 ppm [4]: ≥ 80%
percent effect (mortality or growth inhibition) at 200 ppm [6]: ≥ 80%

CCS(=N)(=O)c1cc(OC(C)(C)C#N)c(C)nc1-c1nc2cc(C(F)(F)F)cnc2n1C (single isomer, unassigned) [Compound P5-A, 2-[[5-(ethylsulfonimidoyl)-2-methyl-6-[3-methyl-6-(trifluoromethyl)imidazo[4,5-b]pyridin-2-yl]-3-pyridyl]oxy]-2-methyl-propanenitrile]
percent control (mortality, anti-feedant effect or growth inhibition) at 200 ppm [5]: ≥ 80%
percent effect (mortality or growth inhibition) at 200 ppm [4]: ≥ 80%
mortality at 3.125 ppm [4]: 80%
mortality at 200 ppm ([1]; Myzus persicae, foliar): ≥ 80%
mortality at 24 ppm [2, 7]: ≥ 80%
mortality at 24 ppm [2, 8]: 100%
mortality at 200 ppm [3]: ≥ 80%

CCS(=N)(=O)c1cc(OC(C)(C)C#N)cnc1-c1cn2cnc(C(F)(F)F)cc2n1 (single isomer, unassigned) [Compound P11-B, 2-[[5-(ethylsulfonimidoyl)-6-[7-(trifluoromethyl)imidazo[1,2-c]pyrimidin-2-yl]-3-pyridyl]oxy]-2-methyl-propanenitrile]
mortality at 200 ppm [3]: ≥ 80%

CCS(=N)(=O)c1cc(OC(C)(C)C#N)cnc1-c1nc2cc(C(F)(F)F)nnc2n1C (single isomer, unassigned) [Compound P15-B, 2-[[5-(ethylsulfonimidoyl)-6-[7-methyl-3-(trifluoromethyl)imidazo[4,5-c]pyridazin-6-yl]-3-pyridyl]oxy]-2-methyl-propanenitrile]
Mortality (%) ([4]; concentration 12.5 ppm): 100%

CCS(=O)(=O)c1cc(C2(C#N)CC2)cnc1-c1nc2cc(C(F)(F)F)nnc2n1C [Described in WO18/108726 as compound H-1, reference compound]
mortality at 3.125 ppm [1, 9]: 80%

CCS(=O)(=O)c1cc(OC(C)(C)C#N)cnc1-c1nc2cc(C(F)(F)F)ncc2n1C [Described in WO18/197315 as compound P18, reference compound]
mortality at 12.5 ppm ([1]; Myzus persicae, foliar, Myzus persicae (feeding/contact), concentration 12.5 ppm): 65%

CCS(=O)(=O)c1cc(OC(C)(C)C#N)cnc1-c1cn2cnc(C(F)(F)F)cc2n1 [Described in WO18/206348 as compound P13, reference compound]
mortality at 24 ppm [2, 8]: 0%

CCS(=O)(=O)c1cc(OC(C)(C)C#N)cnc1-c1nc2cc(C(F)(F)F)cnc2n1C [Described in WO21/219810 as compound P3, reference compound]
mortality at 24 ppm [2, 8]: 50%

CCS(=O)(=O)c1cc(OC(C)(C)C#N)c(C)nc1-c1nc2cc(C(F)(F)F)cnc2n1C [Described in WO21/219810 as compound P4, reference compound]
mortality at 24 ppm [2, 8]: 0%

CCS(=O)(=O)c1cc(OC(C)(C)C#N)cnc1-c1nc2cc(C(F)(F)F)n(C3CC3)c(=O)c2n1C [Described in WO21/219810 as compound P7, reference compound]
mortality at 50 ppm ([1]; Myzus persicae, foliar, Myzus persicae (contact), concentration 50 ppm): 0%

CCS(=O)(=O)c1cc(C2(C#N)CC2)cnc1-c1nc2cc(C(F)(F)F)ncc2n1C [reference compound]
mortality at 0.781 ppm ([1]; Myzus persicae, foliar, Myzus persicae (feeding/contact), concentration 0.781 ppm): 0%

CCS(=O)(=O)c1cc(C2(C#N)CC2)ccc1-c1nc2cc(C(F)(F)F)cnc2n1C [reference compound]
mortality at 6 ppm ([2]; Myzus persicae (systemic), concentration 6 ppm): 0%

CCS(=O)(=O)c1cc(C2(C#N)CC2)cnc1-c1nc2cc(C(F)(F)F)cnc2n1C [reference compound]
mortality at 3.125 ppm [1, 9]: 80%
